Among the data in patent US20260207602A1, “EGFR INHIBITORS” (Blueprint Medicines Corporation, priority 2022, published 2026) are IC50 values, retold here.

Assay [1] deals with intracellular phosphorylation of EGFR (Tyr1068) in PC-9 cells (Homo sapiens, UniProt P00533, DEL746-750). Nature of the assay: PC-9 pEGFR AlphaLISA assay. The assay is classed as cell-based. Particulars: 4 hours incubation, read-out: Phos EGFR PC9 IC50. The procedure, abridged:
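PC-9 cells (EGFR del746-750) in phenol-free DMEM/10% FBS, adhered overnight, then exposed to 10-point 4-fold compound dilutions for 4 h at 37 °C. Lysates assayed for pEGFR Tyr1068 by AlphaLISA SureFire Ultra; IC50 from percent pEGFR inhibition vs log concentration.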

The target in a further assay is T1, EGFR (d746-750) (Homo sapiens, UniProt P00533, DEL746-750).
T1 construct: purchased SignalChem E10-122JG
Briefly: Biochemical EGFR inhibition assay (Caliper mobility shift), EGFR (d746-750). Particulars: read-out: Enz EGFR Exon 19-del IC50. The procedure, abridged:
(§1)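 Apparent IC50 from Caliper separation of phospho-peptide from substrate. Conditions: 2.5 µM 5-FAM peptide, 1.0 mM ATP or ATP Km, pH 7.5 HEPES buffer, room temperature, 10–20% conversion, EDTA stop.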

For a further assay, the target named is T2, EGFR L858R (Homo sapiens, UniProt P00533, L858R).
T2 construct: purchased SignalChem E10-122BG
Briefly: Biochemical EGFR inhibition assay (Caliper mobility shift), EGFR L858R. Particulars: read-out: Enz EGFR L858R IC50. A digest of the protocol: as §1

Setting [2] is: biochemical Caliper mobility shift assay, EGFR Exon 19-del enzyme.
Where [3] appears, read: biochemical Caliper mobility shift assay, EGFR L858R enzyme.

Where two headings read alike, the source gives them in different places. A value given as a limit tells only on which side of the number the result lay.

T2 sequence (P00533 25-1210 L858R): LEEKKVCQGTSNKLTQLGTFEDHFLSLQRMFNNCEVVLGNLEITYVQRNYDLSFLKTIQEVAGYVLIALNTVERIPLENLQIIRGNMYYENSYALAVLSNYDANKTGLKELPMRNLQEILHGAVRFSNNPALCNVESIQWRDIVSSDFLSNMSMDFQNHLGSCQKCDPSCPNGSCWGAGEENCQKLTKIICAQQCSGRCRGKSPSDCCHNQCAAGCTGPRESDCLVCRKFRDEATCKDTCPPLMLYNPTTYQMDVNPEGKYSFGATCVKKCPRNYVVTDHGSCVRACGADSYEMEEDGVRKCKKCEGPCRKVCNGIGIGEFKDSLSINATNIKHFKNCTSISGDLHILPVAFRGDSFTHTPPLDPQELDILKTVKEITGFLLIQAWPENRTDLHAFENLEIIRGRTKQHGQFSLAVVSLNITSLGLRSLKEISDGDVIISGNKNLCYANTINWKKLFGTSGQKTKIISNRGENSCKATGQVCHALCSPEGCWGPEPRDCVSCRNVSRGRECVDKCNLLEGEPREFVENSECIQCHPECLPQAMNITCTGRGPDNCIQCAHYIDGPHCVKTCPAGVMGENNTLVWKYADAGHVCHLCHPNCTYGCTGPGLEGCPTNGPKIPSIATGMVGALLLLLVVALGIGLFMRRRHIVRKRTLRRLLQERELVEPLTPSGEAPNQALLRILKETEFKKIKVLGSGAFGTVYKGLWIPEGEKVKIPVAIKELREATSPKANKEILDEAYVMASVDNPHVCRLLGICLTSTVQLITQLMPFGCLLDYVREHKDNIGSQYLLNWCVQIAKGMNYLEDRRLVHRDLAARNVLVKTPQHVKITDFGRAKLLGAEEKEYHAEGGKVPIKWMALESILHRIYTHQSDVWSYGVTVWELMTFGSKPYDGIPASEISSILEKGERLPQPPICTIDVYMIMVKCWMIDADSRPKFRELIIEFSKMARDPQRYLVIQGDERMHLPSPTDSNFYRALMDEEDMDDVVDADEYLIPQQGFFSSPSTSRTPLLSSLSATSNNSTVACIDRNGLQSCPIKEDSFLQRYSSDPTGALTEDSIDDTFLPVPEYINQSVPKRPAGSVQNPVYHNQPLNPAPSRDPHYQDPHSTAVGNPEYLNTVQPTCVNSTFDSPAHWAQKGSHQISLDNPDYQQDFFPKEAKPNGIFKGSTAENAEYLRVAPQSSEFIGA
intracellular phosphorylation of EGFR (Tyr1068) in PC-9 cells, sequence (P00533 with tags, fused parts or gaps DEL746-750): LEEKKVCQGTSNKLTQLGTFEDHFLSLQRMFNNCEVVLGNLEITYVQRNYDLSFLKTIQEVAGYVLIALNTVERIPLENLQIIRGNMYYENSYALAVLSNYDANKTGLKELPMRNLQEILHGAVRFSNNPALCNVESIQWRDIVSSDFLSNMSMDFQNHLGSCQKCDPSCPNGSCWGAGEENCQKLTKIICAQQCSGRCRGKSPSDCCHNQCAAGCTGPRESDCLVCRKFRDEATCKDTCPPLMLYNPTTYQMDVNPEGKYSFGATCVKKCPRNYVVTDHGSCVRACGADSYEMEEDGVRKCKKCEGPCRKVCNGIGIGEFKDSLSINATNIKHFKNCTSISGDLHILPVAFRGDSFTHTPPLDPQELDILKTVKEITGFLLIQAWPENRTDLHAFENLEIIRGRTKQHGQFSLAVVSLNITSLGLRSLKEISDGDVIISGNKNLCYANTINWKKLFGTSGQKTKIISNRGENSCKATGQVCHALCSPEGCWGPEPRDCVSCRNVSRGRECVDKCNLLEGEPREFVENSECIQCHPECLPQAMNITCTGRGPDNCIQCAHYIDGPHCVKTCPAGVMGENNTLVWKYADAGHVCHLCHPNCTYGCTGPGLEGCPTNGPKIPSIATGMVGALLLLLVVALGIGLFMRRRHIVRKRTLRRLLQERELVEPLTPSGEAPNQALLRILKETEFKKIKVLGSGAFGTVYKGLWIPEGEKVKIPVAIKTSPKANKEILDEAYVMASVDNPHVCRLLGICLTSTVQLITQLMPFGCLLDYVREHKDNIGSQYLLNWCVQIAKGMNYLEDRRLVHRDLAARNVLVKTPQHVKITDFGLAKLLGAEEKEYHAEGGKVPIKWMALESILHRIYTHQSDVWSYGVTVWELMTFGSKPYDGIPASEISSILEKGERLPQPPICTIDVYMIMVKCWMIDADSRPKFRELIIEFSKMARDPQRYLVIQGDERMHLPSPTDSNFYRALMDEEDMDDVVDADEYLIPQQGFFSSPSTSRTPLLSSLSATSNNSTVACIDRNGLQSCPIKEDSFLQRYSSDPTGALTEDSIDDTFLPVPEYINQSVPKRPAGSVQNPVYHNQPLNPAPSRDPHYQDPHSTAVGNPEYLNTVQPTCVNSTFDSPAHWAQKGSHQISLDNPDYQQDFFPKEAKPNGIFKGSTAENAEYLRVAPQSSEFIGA
T1 sequence (P00533 with tags, fused parts or gaps DEL746-750 limits assumed): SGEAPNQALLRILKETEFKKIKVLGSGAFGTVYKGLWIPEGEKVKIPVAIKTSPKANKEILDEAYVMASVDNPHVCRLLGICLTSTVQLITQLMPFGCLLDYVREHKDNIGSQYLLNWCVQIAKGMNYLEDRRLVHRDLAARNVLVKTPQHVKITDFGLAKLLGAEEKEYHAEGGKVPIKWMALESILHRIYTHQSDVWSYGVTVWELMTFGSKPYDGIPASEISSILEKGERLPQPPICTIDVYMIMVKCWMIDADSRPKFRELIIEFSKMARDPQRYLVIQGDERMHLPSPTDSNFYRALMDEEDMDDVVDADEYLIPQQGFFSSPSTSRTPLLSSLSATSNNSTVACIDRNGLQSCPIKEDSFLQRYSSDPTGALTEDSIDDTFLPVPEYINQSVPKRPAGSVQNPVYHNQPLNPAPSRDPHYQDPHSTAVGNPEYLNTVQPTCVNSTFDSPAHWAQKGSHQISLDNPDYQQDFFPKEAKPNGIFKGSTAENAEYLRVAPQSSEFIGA

With `COc1cc2ncnc(Nc3ccc4ncsc4c3)c2cc1-c1cnn([C@@H]2CCNC[C@@H]2F)c1` (racemic) [Example 164, cis-N-(6-(1-((3R,4S)-3-fluoropiperidin-4-yl)-1H-pyrazol-4-yl)-7-methoxyquinazolin-4-yl)benzo[d]thiazol-6-amine], the values for the 50% inhibitory concentration (IC50) (in assay [1]; at EGFR (d746-750) (setting [2]); on EGFR L858R (setting [3])) were 0.0101 to 0.05 µM, ≤ 0.01 µM and ≤ 0.01 µM, respectively.
As to `Cc1cn(-c2cc(OC(C)CN(C)C)c3c(Nc4ccc5ncsc5c4)ncnc3c2)c(=O)n1C` (stereo not drawn) [Example 203, 1-(4-(benzo[d]thiazol-6-ylamino)-5-((1-(dimethylamino)propan-2-yl)oxy)quinazolin-7-yl)-3,4-dimethyl-1,3-dihydro-2H-imidazol-2-one], the IC50 – broadly, the midpoint of a concentration-inhibition curve – in assay [1] is 0.0101 to 0.05 µM; on EGFR (d746-750) (setting [2]) it was ≤ 0.01 µM; on EGFR L858R (setting [3]), 0.0101 to 0.05 µM.
Consider `Cn1cc(-c2cc(O[C@H]3CCOC[C@@H]3F)c3c(Nc4ccc5ncsc5c4)ncnc3c2)cn1` (single isomer, unassigned) [Example 46], for which the IC50 (in assay [1]; on EGFR (d746-750) (setting [2]); at EGFR L858R (setting [3])) was ≤ 0.01 µM each time.
For the compound `Cn1cc(-c2cc(OC3CCOCC3)c3c(Nc4ccc5ncsc5c4)ncnc3c2)cn1` [Example 15, N-(7-(1-methyl-1H-pyrazol-4-yl)-5-((tetrahydro-2H-pyran-4-yl)oxy)quinazolin-4-yl)benzo[d]thiazol-6-amine], the IC50 (in assay [1]; at EGFR (d746-750) (setting [2]); on EGFR L858R (setting [3])) was ≤ 0.01 µM each time.
As for `C[C@@H](Oc1c(F)c(-c2cnn(C)c2)cc2ncnc(Nc3ccc4ncsc4c3F)c12)C1COC1` (single isomer, unassigned) [Example A28], the IC50 was > 0.0501 µM in assay [1], ≤ 0.01 µM on EGFR (d746-750) (setting [2]) and 0.0101 to 0.05 µM at EGFR L858R (setting [3]).
As for `COCCN1CCC(Oc2cc(-c3cnn(C)c3)cc3ncnc(Nc4ccc5ncsc5c4F)c23)CC1` [Example 316, 7-fluoro-N-(5-((1-(2-methoxyethyl)piperidin-4-yl)oxy)-7-(1-methyl-1H-pyrazol-4-yl)quinazolin-4-yl)benzo[d]thiazol-6-amine], the IC50 in assay [1] was 0.0101 to 0.05 µM; at EGFR (d746-750) (setting [2]), ≤ 0.01 µM; on EGFR L858R (setting [3]) it was 0.0101 to 0.05 µM.
For `C[C@H](Oc1cc(-c2cnn(C)c2)cc2ncnc(Nc3ccc4ncsc4c3F)c12)C1CCOC1` (stereo partly drawn) [Example 90, 7-fluoro-N-(7-(1-methyl-1H-pyrazol-4-yl)-5-((1S)-1-(tetrahydrofuran-3-yl)ethoxy)quinazolin-4-yl)benzo[d]thiazol-6-amine], the half-inhibitory concentration (IC50) in assay [1] is 0.0101 to 0.05 µM; at EGFR (d746-750) (setting [2]), ≤ 0.01 µM; on EGFR L858R (setting [3]), ≤ 0.01 µM.
In the case of `CC(C)(O)Cn1cc(-c2cc(OC3CCOCC3)c3c(Nc4ccc5ncsc5c4)ncnc3c2)cn1` [Example 190, 1-(4-(4-(benzo[d]thiazol-6-ylamino)-5-((tetrahydro-2H-pyran-4-yl)oxy)quinazolin-7-yl)-1H-pyrazol-1-yl)-2-methylpropan-2-ol], the half-maximal inhibitory concentration (IC50) (in assay [1]; at EGFR (d746-750) (setting [2]); at EGFR L858R (setting [3])) was ≤ 0.01 µM in each case.
For `CN1CC[C@@H](Oc2cc(-c3cnn(C)c3)cc3ncnc(Nc4ccc5ncsc5c4)c23)[C@@H](F)C1` (racemic) [Example 339, cis-N-(5-(((3S,4R)-3-fluoro-1-methylpiperidin-4-yl)oxy)-7-(1-methyl-1H-pyrazol-4-yl)quinazolin-4-yl)benzo[d]thiazol-6-amine], the IC50 (in assay [1]; at EGFR (d746-750) (setting [2]); on EGFR L858R (setting [3])) was ≤ 0.01 µM throughout.
`CN1CC[C@H](Oc2cc(-c3cnn(C)c3)cc3ncnc(Nc4ccc5ncsc5c4F)c23)C1=O` (single isomer, unassigned) [Example 72]: the 50% inhibitory concentration (IC50) (in assay [1]; on EGFR (d746-750) (setting [2]); at EGFR L858R (setting [3])) was ≤ 0.01 µM throughout.
Take `CN1CCC[C@H](Oc2cc(C#CCN3CCOCC3)cc3ncnc(Nc4ccc5ncsc5c4)c23)C1` [Example A25, N-(1,3-benzothiazol-6-yl)-5-{[(3S)-1-methylpiperidin-3-yl]oxy}-7-[3-(morpholin-4-yl)prop-1-yn-1-yl]quinazolin-4-amine]: the IC50 was 0.0101 to 0.05 µM in assay [1], < 0.01 µM at EGFR (d746-750) and < 0.01 µM on EGFR L858R.
For the compound `CC(Oc1cc(-c2cnn(C)c2)cc2ncnc(Nc3ccc4ncsc4c3)c12)C(F)F` (racemic) [Example 51, (rac)-N-(5-((1,1-difluoropropan-2-yl)oxy)-7-(1-methyl-1H-pyrazol-4-yl)quinazolin-4-yl)benzo[d]thiazol-6-amine], the 50% inhibitory concentration (IC50) (in assay [1]; at EGFR (d746-750) (setting [2]); at EGFR L858R (setting [3])) was ≤ 0.01 µM in each case.
On to `COc1cn(C)nc1-c1cc(O[C@H](C)C2COC2)c2c(Nc3ccc4ncsc4c3)ncnc2c1` (single isomer, unassigned) [Example 121], for which the half-inhibitory concentration (IC50) is 0.0101 to 0.05 µM in assay [1], ≤ 0.01 µM on EGFR (d746-750) (setting [2]) and ≤ 0.01 µM on EGFR L858R (setting [3]).
For `Cn1cc(-c2cc(OC3CC4(COC4)C3)c3c(Nc4ccc5ncsc5c4)ncnc3c2)cn1` [Example 38, N-(5-((2-oxaspiro[3.3]heptan-6-yl)oxy)-7-(1-methyl-1H-pyrazol-4-yl)quinazolin-4-yl)benzo[d]thiazol-6-amine], the IC50 (in assay [1]; at EGFR (d746-750) (setting [2]); at EGFR L858R (setting [3])) was ≤ 0.01 µM throughout.
Turning to `CN1CC[C@@H](F)[C@@H](Oc2cc(-c3cnn(C)c3)cc3ncnc(Nc4ccc5ncsc5c4)c23)C1` (single isomer, unassigned) [Example 161], the concentration for half-maximal inhibition (IC50) (in assay [1]; on EGFR (d746-750) (setting [2]); at EGFR L858R (setting [3])) was ≤ 0.01 µM each time.
For `CN1CCN(C(=O)COc2cc(-c3cnn(C)c3)cc3ncnc(Nc4ccc5ncsc5c4F)c23)CC1` [Example 275, 2-((4-((7-fluorobenzo[d]thiazol-6-yl)amino)-7-(1-methyl-1H-pyrazol-4-yl)quinazolin-5-yl)oxy)-1-(4-methylpiperazin-1-yl)ethan-1-one], the half-maximal inhibitory concentration (IC50) in assay [1] is 0.0101 to 0.05 µM; at EGFR (d746-750) (setting [2]), ≤ 0.01 µM; on EGFR L858R (setting [3]), ≤ 0.01 µM.
For the compound `Cn1cc(-c2cc(O[C@H]3CCOC3)c3c(Nc4ccc5ncsc5c4)ncnc3c2)cn1` [Example 36, (S)-N-(7-(1-methyl-1H-pyrazol-4-yl)-5-((tetrahydrofuran-3-yl)oxy)quinazolin-4-yl)benzo[d]thiazol-6-amine], the 50% inhibitory concentration (IC50) (in assay [1]; on EGFR (d746-750) (setting [2]); at EGFR L858R (setting [3])) was ≤ 0.01 µM throughout.
Take `CN1CC[C@H](Oc2cc(-c3cnn(C)c3)cc3ncnc(Nc4ccc5ncsc5c4)c23)[C@@H](O)C1` (single isomer, unassigned) [Example A35]: the results for the half-inhibitory concentration (IC50) (in assay [1]; at EGFR (d746-750) (setting [2]); at EGFR L858R (setting [3])) were 0.0101 to 0.05 µM, ≤ 0.01 µM and ≤ 0.01 µM, respectively.
As to `COc1nn(C)cc1-c1cc(O[C@H]2CCNC[C@H]2F)c2c(Nc3ccc4ncsc4c3)ncnc2c1` [Example 365, N-(5-(((3R,4S)-3-fluoropiperidin-4-yl)oxy)-7-(3-methoxy-1-methyl-1H-pyrazol-4-yl)quinazolin-4-yl)benzo[d]thiazol-6-amine], the IC50 (in assay [1]; at EGFR (d746-750) (setting [2]); at EGFR L858R (setting [3])) was ≤ 0.01 µM throughout.
With `COc1cc2ncnc(Nc3ccc4ncsc4c3)c2cc1-c1cnn([C@H]2CCN(C)C[C@@H]2F)c1` (racemic) [Example 169, trans-N-(6-(1-((3S,4S)-3-fluoro-1-methylpiperidin-4-yl)-1H-pyrazol-4-yl)-7-methoxyquinazolin-4-yl)benzo[d]thiazol-6-amine], the IC50 is 0.0101 to 0.05 µM in assay [1], ≤ 0.01 µM at EGFR (d746-750) (setting [2]) and ≤ 0.01 µM on EGFR L858R (setting [3]).
As to `C[C@@H]1CN(c2cc(O[C@H](C)C3COC3)c3c(Nc4ccc5ncsc5c4F)ncnc3c2)CCN1C` (single isomer, unassigned) [Example 103], the IC50 was ≤ 0.01 µM in assay [1], ≤ 0.01 µM at EGFR (d746-750) (setting [2]) and 0.0101 to 0.05 µM at EGFR L858R (setting [3]).
On to `Cn1cc(-c2cc(O[C@H]3CC[C@H]3O)c3c(Nc4ccc5ncsc5c4)ncnc3c2)cn1` [Example 185, (1R,2S)-2-((4-(benzo[d]thiazol-6-ylamino)-7-(1-methyl-1H-pyrazol-4-yl)quinazolin-5-yl)oxy)cyclobutan-1-ol], for which the 50% inhibitory concentration (IC50) (in assay [1]; on EGFR (d746-750) (setting [2]); at EGFR L858R (setting [3])) was ≤ 0.01 µM throughout.
As to `Cn1cc(-c2cc(OC[C@]34COC[C@H]3C4)c3c(Nc4ccc5ncsc5c4)ncnc3c2)cn1` (single isomer, unassigned) [Example 148], the 50% inhibitory concentration (IC50) was 0.0101 to 0.05 µM in assay [1], ≤ 0.01 µM on EGFR (d746-750) (setting [2]) and ≤ 0.01 µM at EGFR L858R (setting [3]).
Consider `C[C@@H](CN(C)C)Oc1cc(N2CCN(C)CC2)cc2ncnc(Nc3ccc4ncsc4c3)c12` (single isomer, unassigned) [Example 117], for which the half-inhibitory concentration (IC50) (in assay [1]; at EGFR (d746-750) (setting [2]); at EGFR L858R (setting [3])) was 0.0101 to 0.05 µM throughout.
Take `C[C@@H]1OC[C@H]1Oc1cc(-c2cnn(C)c2)cc2ncnc(Nc3ccc4ncsc4c3)c12` (racemic) [Example 10, trans-N-(7-(1-methyl-1H-pyrazol-4-yl)-5-(((2S,3S)-2-methyloxetan-3-yl)oxy)quinazolin-4-yl)benzo[d]thiazol-6-amine]: the IC50 in assay [1] is 0.0101 to 0.05 µM; on EGFR (d746-750) (setting [2]) it was ≤ 0.01 µM; at EGFR L858R (setting [3]), ≤ 0.01 µM.
As to `CC(C)N1CC[C@@H](Oc2cc(-c3cnn(C)c3)cc3ncnc(Nc4ccc5ncsc5c4)c23)C1=O` (single isomer, unassigned) [Example 64], the 50% inhibitory concentration (IC50) in assay [1] is 0.0101 to 0.05 µM; at EGFR (d746-750) (setting [2]), ≤ 0.01 µM; on EGFR L858R (setting [3]), ≤ 0.01 µM.
